Test: pKa of the acidic agrochemically active ingredient
Format: physicochemical
Settings: not given
Excerpt: In the case of using the above-described acidic agrochemically active ingredient having the prescribed pKa, the pKa of the ingredient can be measured by, for example, a method described in “Jikken Kagaku Koza 5, (Thermal measurement and Equilibrium)”, Maruzene, p. 469-474, Jan. 20 (1958) and the like.

SMILES | pKa
Cc1cccc2sc3nncn3c12 [tricyclazole, 5-methyl-1,2,4-triazolo[3,4-b]benzothiazole] | 1.6
CCOP(=O)(Sc1ccccc1)Sc1ccccc1 [EDDP] | 10.5
CCc1cccc(C(O)c2nc(OC)cc(OC)n2)c1NS(=O)(=O)C(F)F (stereo not drawn) [Compound B, 2-[(4,6-dimethoxypyrimidin-2-yl)hydroxymethyl]-6-ethyl-N-difuloromethanesulfonylanilide] | 6.17
COCc1cccc(C(O)c2nc(OC)cc(OC)n2)c1NS(=O)(=O)C(F)F (stereo not drawn) [Compound A, 2-[(4,6-dimethoxypyrimidin-2-yl)hydroxymethyl]-6-methoxymethyl-N-difuloromethanesulfonylanilide] | 5.75
CNC(=O)Oc1ccccc1OC(C)C [PHC] | 11.5
COC(=O)c1ccccc1CS(=O)(=O)NC(=O)Nc1nc(OC)cc(OC)n1 [bensulfuron-methyl, methyl α-(4,6-dimethoxypyrimidin-2-ylcarbamoylsulfamoyl)-o-toluate] | 5.03

Same assay, conditions: read-out: pKa

SMILES | pKa
CCOC(=O)c1cnn(C)c1S(=O)(=O)NC(=O)Nc1nc(OC)cc(OC)n1 [pyrazosulfuron-ethyl, ethyl 5-(4,6-dimethoxypyrimidin-2-ylcarbamoylsulfamoyl)-1-methylpyrazole-4-carboxylate] | 3.91
COc1cc(OC)nc(NC(=O)NS(=O)(=O)c2c(-c3nnn(C)n3)cnn2C)n1 [azimsulfuron, 1-(4,6-dimethoxypyrimidin-2-yl)-3-[1-methyl-4-(2-methyl-2H-tetrazol-5-yl)pyrazol-5-ylsulfonyl]urea] | 3.6
COc1cc(OC)nc(NC(=O)NS(=O)(=O)c2c(Cl)nc3ccccn23)n1 [imazosulfuron, 1-(2-chloroimidazo[1,2-a]pyridin-3-ylsulfonyl)-3-(4,6-dimethoxypyrimidin-2-yl)urea] | 4

— patent publication US7638506B2, “Granular agrochemical composition” (Kumiai Chemical Industry Co., Ltd., priority 2002, dated 2009)
